Data set [1] addresses T1, GDP-loaded KRAS^G12D (Homo sapiens, UniProt P01116, G12D).
T1 construct: (AAs 1 to 169 plus a 4xGly motif appended to the N-; His-SUMO (N, cleaved yes); made in house; host or cells: E. coli Rosetta 2 (DE3)
The data set can be described thus: TR-FRET competitive binding assay using KRAS G12D loaded with GDP. The conditions noted are these: competition with 500 nM FAM-labeled tracer; relative binding, EC50 right-shifted compared to KD.

The test system of data set [2] is pERK in KRAS^G12C, KRAS^G12V and KRAS^G12D cancer lines. Description: Cellular phospho-ERK assay in panel of KRAS mutant cancer lines. The data set is classed as cell-based. On the procedure: For the latter, this included HEK293 cells (Fig. 4C), a cell line that has no dependency on RAS for cell proliferation.[21]
Ratio of pERK vs total ERK in
Penicillin/Streptomycin (Gibco 15140-122).
A375 cells were seeded at a
membranes were measured by LDH release assay.
according to manufacturer’s protocol.

In data set [3] the test system is AsPC-1, SK-CO-1, NCI-H358 and NCI-H2122 cells. The data set can be described thus: CellTiter-Glo 2.0 cell viability assay, KRAS mutant lines. The format is cell-based. The following applies: AsPC-1, SK-CO-1, NCI-H358, NCI-H2122; 120 h. The method, then: (§1) Prism software (GraphPad, San Diego, CA).
(§2) according to the manufacturer’s protoco l.
(§3) time of 0.15 second per well.
(§4) AMG510 was prepared internally from
(§5) Cells were cultured and seeded
In general terms: In ATP-based viability assays light output follows the ATP content of the culture.

The test system of data set [4] is extended cell panel incl. HEK293 cells. The data set can be described thus: CellTiter-Glo cell viability assay (extended cell panel). The data set is classed as cell-based.
From the text: Table S2: Cell culture conditions and seeding densities for 5-day CellTiter- Glo® cell viability assay on extended 1 6 cell panel.
Cell Line Vendor Catalog Description Complete g rowth m e d i um Seeding density […]
Capan-1 ATCC HTB-79 pancreas, adenocarcinoma IMDM+20%FBS 7 00
CFPAC-1 ATCC CRL-19 18 pancreas, ductal adenocarcinoma; cystic fibrosis IMDM+10%FBS 6 00 […]
MiaPaCa-2 ATCC CRL-14 20 pancreas, pancreatic Carcinoma DMEM+10%FBS 6 00 NCI-H358 ATCC CRL-58 07 lung, non-small cell lung cancer,bronchioalveolar RPMI1640+10%FBS […]
Panc 10.05 ATCC CRL-25 47 pancreas, adenocarcinoma RPMI1640 + 20 Units/ml human […]
SK-CO-1 ATCC HTB-39 colon, colorectal adenocarcinoma EMEM+10%FBS 3 00 […]
SW4 80 ATCC CCL-22 8 colon, adenocarcinoma Leibovitz's L-15
Prism software (GraphPad, San Diego, CA). […]
according to the manufacturer’s protoco l. […]
as §3, §4
Cells were cultured and seeded […]
the manufacturer’s protocol. […]
integration time of 0.1 second per well. […]
indicated peptides the next day.

In data set [5] the test system is A375 cells. Description: CellTiter-Glo 2.0 cell viability assay, A375. The data set is classed as cell-based. The following applies: 120 h. The method, then: as §1, §2, §3, §4, §5
Data set [6] concerns EGF receptor activation. Description: Western blot of EGF receptor activation in AsPC-1 cells. The format is cell-based. (In general: In western blotting, separated proteins are transferred to a membrane and probed.)
Data set [7] concerns pERK and pAKT in AsPC-1 cells. The data set can be described thus: Western blot of KRAS signaling (pERK, pAKT) in AsPC-1 cells. The conditions noted are these: 1 hour and 16 hour time-points. The format is cell-based.
For data set [8], the system named is rat mast cells. The data set can be described thus: Ex vivo rat mast cell degranulation and histamine release assay.
The test system of data set [9] is TNFα-stimulated NFκB signaling. Description: Western blot of TNFα-stimulated NFκB signaling in AsPC-1 cells. The data set is classed as cell-based.
Data set [10] has as its system MAPK and PI3K signaling in SK-MEL-28 cells (BRAF^V600E). The data set can be described thus: Western blot of MAPK and PI3K signaling in SK-MEL-28 cells. The format is cell-based.
Data set [11] relates to MAPK and PI3K signaling in A375 cells (BRAF^V600E). Description: Western blot of MAPK and PI3K signaling in A375 cells. The data set is classed as cell-based.
Data set [12] deals with A375 and SK-MEL-28 cells vs AsPC-1 cells. Description: Live-cell fluorescence imaging of FAM-labelled peptides. The data set is classed as cell-based. The conditions noted are these: A375 and SK-MEL-28 compared to AsPC-1.
Data set [13] has as its system pERK in NCI-H358 (heterozygous KRAS^G12C) cells. Description: Cellular phospho-ERK assay in NCI-H358 cells with and without EGF. The conditions noted are these: 20 nM EGF stimulation.

SMILES strings stand for the structures. Numbered stars: 1 amine (or outer) side, 2 acyl side, 3 side chain; on linkers, the order of the positions; unused ones are H or OH. Bridge positions count the residues as written; N and C are the ends. Square brackets hold non-standard residues; d marks the D form. Peptide text beside a SMILES is read from it. CH2 = C([*:1])[*:2]

The term EC50 denotes the concentration needed to bring the measured effect to its halfway point. Turning to `CC[C@H](C)[C@@H]1NC(=O)[C@H](Cc2ccc(O)cc2)NC(=O)[C@H](C)NC(=O)[C@@H]2CCCN2C(=O)[C@H](NC(=O)[C@H](CCCNC(=N)N)NC(=O)[C@H](CCCNC(=N)N)NC(C)=O)CSCSC[C@@H](C(=O)N[C@@H](CCCNC(=N)N)C(=O)N[C@@H](CCCNC(=N)N)C(N)=O)NC(=O)[C@H](C(C)C)NC(=O)[C@@H]2CCCN2C(=O)[C@H](CC(=O)O)NC(=O)[C@H](Cc2ccc(O)cc2)NC(=O)[C@H](CO)NC1=O` [Compound 6] (Ac-RR[dC]PAYISYDPVCRR-NH2; linker 3-13 via CH2), the half-maximal effective concentration (EC50) in [1] was above 48.1 µM.
Take `CC[C@H](C)[C@@H]1NC(=O)[C@H](Cc2ccc(O)cc2)NC(=O)[C@H](CC(C)C)NC(=O)[C@@H]2CCCN2C(=O)[C@H](NC(=O)[C@@H](CCCNC(=N)N)NC(=O)[C@@H](CCCNC(=N)N)NC(=O)[C@@H](CCCNC(=N)N)NC(=O)[C@@H](CCCNC(=N)N)NC(=O)[C@H](CCCCN=[N+]=[N-])NC(C)=O)CSCSC[C@@H](C(=O)N[C@H](CCCNC(=N)N)C(=O)N[C@H](CCCNC(=N)N)C(=O)N[C@H](CCCNC(=N)N)C(=O)N[C@H](CCCNC(=N)N)C(N)=O)NC(=O)[C@H](C(C)C)NC(=O)[C@@H]2CCCN2C(=O)[C@H](CC(=O)O)NC(=O)[C@H](Cc2ccc(O)cc2)NC(=O)[C@](C)(CO)NC1=O` [MP-3995]: in [2], the “pERK inhibition across KRAS mutant cancer lines” value is reported as “low micromolar range”. In [3], the “inhibition of cell proliferation in KRAS mutant lines” value is “inhibitory effects on cell proliferation”. Also, in data set [4] (HEK293, no dependency on RAS), the “sensitivity of HEK293 cell proliferation” value is listed as “insensitive”. In data set [4] (extended panel, 120 h), the “number of KRAS mutant cell lines with inhibited proliferation” value is 8 out of 13. The “cell growth inhibition in A375” value in data set [5] is reported as “lack of cell growth inhibition”.
Regarding `CC[C@H](C)[C@@H]1NC(=O)[C@H](Cc2ccc(O)cc2)NC(=O)[C@H](CC(C)C)NC(=O)[C@@H]2CCCN2C(=O)[C@H](NC(=O)[C@@H](CCCNC(=N)N)NC(=O)[C@@H](CCCNC(=N)N)NC(=O)[C@@H](CCCNC(=N)N)NC(=O)[C@@H](CCCNC(=N)N)NC(=O)[C@H](CCCCN=[N+]=[N-])NC(C)=O)CSCSC[C@@H](C(=O)N[C@H](CCCNC(=N)N)C(=O)N[C@H](CCCNC(=N)N)C(=O)N[C@H](CCCNC(=N)N)C(=O)N[C@H](CCCNC(=N)N)C(N)=O)NC(=O)[C@H](C(C)C)NC(=O)[C@@H]2CCCN2C(=O)[C@H](CC(=O)O)NC(=O)[C@H](Cc2ccc(O)cc2)NC(=O)[C@H](CO)NC1=O` [MP-4090], the “effect on upstream EGF receptor activation” value in data set [6] is reported as “no effect”. Further, in data set [7], the “inhibition of KRAS signaling (pERK, pAKT) by Western blot” value was “display cell-based inhibition”. The “activation of mast cell degranulation (histamine release), in words” value in data set [8] (ex vivo, rat mast cells) is reported as “highly potent activators of MCD”. For the same compound, the “rMCD histamine release threshold” value in [8] (lowest concentration at which histamine release was observed, rat peritoneal mast cells, 30 min) was at least 0.14 µM. For the same compound, in data set [9], the “effect on TNFα-stimulated NFκB signaling” value was “no effect”. Further, the “inhibition of MAPK signaling in SK-MEL-28” value in data set [10] was “inactive”. In data set [11], the “inhibition of MAPK signaling in A375” value was “inactive”.
For `CC[C@@H](C)[C@H]1NC(=O)[C@@H](Cc2ccc(O)cc2)NC(=O)[C@@H](CC(C)C)NC(=O)[C@H]2CCCN2C(=O)[C@H](NC(=O)[C@@H](CCCNC(=N)N)NC(=O)[C@@H](CCCNC(=N)N)NC(=O)[C@@H](CCCNC(=N)N)NC(=O)[C@@H](CCCNC(=N)N)NC(C)=O)CSCSC[C@H](C(=O)N[C@H](CCCNC(=N)N)C(=O)N[C@H](CCCNC(=N)N)C(=O)N[C@H](CCCNC(=N)N)C(=O)N[C@H](CCCNC(=N)N)C(N)=O)NC(=O)[C@@H](C(C)C)NC(=O)[C@H]2CCCN2C(=O)[C@@H](CC(=O)O)NC(=O)[C@@H](Cc2ccc(O)cc2)NC(=O)[C@@H](CO)NC1=O` [MP-4956, Ac-rrrr-cyclo(c(methylene)plyisydpvc)-rrrr-NH2], the “inhibition of KRAS signaling (pERK, pAKT) by Western blot” value in data set [7] is recorded as “showed no activity”. Moreover, in data set [3], the “inhibition of cell proliferation in KRAS mutant lines” value was “minimal inhibitory effects”.
As to `CC[C@H](C)[C@@H]1NC(=O)[C@H](Cc2ccc(O)cc2)NC(=O)[C@H](CC(C)C)NC(=O)[C@@H]2CCCN2C(=O)[C@H](NC(=O)[C@@H](CCCNC(=N)N)NC(=O)[C@@H](CCCNC(=N)N)NC(=O)[C@@H](CCCNC(=N)N)NC(=O)[C@@H](CCCNC(=N)N)NC(=O)c2ccc3c(c2)C(=O)OC32c3ccc(O)cc3Oc3cc(O)ccc32)CSCSC[C@@H](C(=O)N[C@H](CCCNC(=N)N)C(=O)N[C@H](CCCNC(=N)N)C(=O)N[C@H](CCCNC(=N)N)C(=O)N[C@H](CCCNC(=N)N)C(N)=O)NC(=O)[C@H](C(C)C)NC(=O)[C@@H]2CCCN2C(=O)[C@H](CC(=O)O)NC(=O)[C@H](Cc2ccc(O)cc2)NC(=O)[C@H](CO)NC1=O` [MP-8996], in data set [12], the “cell entry of FAM-labeled peptide in BRAF mutant cells” value is on record as “roughly equivalent amounts compared to AsPC-1 cells”.
On to `C=CC(=O)N1CCN(c2nc(OC[C@@H]3CCCN3C)nc3c2CCN(c2cccc4cccc(C)c24)C3)C[C@@H]1CC#N` [MRTX-1257], for which, in [13], the “potency shift in pERK in the presence of EGF, NCI-H358” value is reported as 2 fold.

These data come from article PMC8672774, “Discovery of cell active macrocyclic peptides with on-target inhibition of KRAS signaling” (Chemical Science, 2021).
